“Also recorded” adds a separate entry of the source. Where two headings read alike, the source gives them in different places.
What was measured:
human α7 = target: T1, human α7 (Homo sapiens, UniProt P36544); experiment: Competition binding to human α7 nicotinic receptor in membrane preparations
T1 construct: expressed in transfected cells; host or cells: HEK cells expressing human α7 and RIC3, obtained from J. Lindstrom, U. Pennsylvania; membranes prepared from the cells
Description: (§1) SH-EP1/human α4β2 (Eaton et al., 2003), SH-EP1/human α4β4 (Gentry et al., 2003), SH-EP1/α6β3β4α5 (Grinevich et al., 2005), TE671/RD and SH-SY5Y cell lines (obtained from Dr. Ron Lukas, Barrow Neurological Institute, St. Joseph's Hospital and Medical Center, Phoenix, Ariz.) were maintained in proliferative growth phase in Dulbecco's modified Eagle's medium (Gibco/BRL) with 10% horse serum (Gibco BRL), 5% fetal bovine serum (HyClone, Logan Utah), 1 mM sodium pyruvate, 4 mM L-glutamine. For maintenance of stable transfectants, the α4β2 and α4β4 cell media was supplemented with 0.25 mg/mL zeocin and 0.13 mg/mL hygromycin B. Selection was maintained for the α6β3β4α5 cells with 0.25 mg/mL of zeocin, 0.13 mg/mL of hygromycin B, 0.4 mg/mL of geneticin, and 0.2 mg/mL of blasticidin. HEK/human α7/RIC3 cells (obtained from J. Lindstrom, U. Pennsylvania, Philadelphia, Pa.) were maintained in proliferative growth phase in Dulbecco's modified Eagle's medium (Gibco/BRL) with 10% fetal bovine serum (HyClone, Logan Utah), 1 mM sodium pyruvate, 4 mM L-glutamine, 0.4 mg/mL geneticin; 0.2 mg/ml hygromycin B.
(§2) Cells were harvested in ice-cold PBS, pH 7.4, then homogenized with a polytron (Brinkmann Instruments, Westbury, N.Y.). Homongenates were centrifuged at 40,000 g for 20 minutes (4° C.). The pellet was resuspended in PBS and protein concentration determined using the Pierce BCA Protein Assay kit (Pierce Biotechnology, Rockford, Ill.).
(§3) Binding to nicotinic receptors was assayed on membranes using standard methods adapted from published procedures (Lippiello and Fernandes, 1986; Davies et al., 1999). In brief, membranes were reconstituted from frozen stocks (approximately 0.2 mg protein) and incubated for 2 h on ice in […] assay buffer (PBS) in the presence of competitor compound (0.001 nM to 100 mM) and radioligand. […] Filters were washed 3 times and the radioactivity retained was determined by liquid scintillation counting.
(§4) Binding data were expressed as percent total control binding. […] Ki was calculated using the Cheng-Prusoff equation (Cheng and Prusoff, 1973).

human α4β2 = target: T2, human α4β2 (Homo sapiens, UniProt P17787+P43681); experiment: Competition binding to human α4β2 nicotinic receptor in membrane preparations
T2 construct: expressed in transfected cells; membranes prepared from the cells
Description: as §1, §2, §3, §4

ova-challenged mice = experiment: Ovalbumin-induced lung inflammation (allergic asthma) model, airway hyperresponsiveness; assay type: in vivo; details: FIGS. 1 and 2, compared to control
Excerpt: Ovalbumin-induced allergic asthma is a widely used model to reproduce the airway eosinophilia, pulmonary inflammation and elevated IgE levels found during asthma. Studies can be run with or without airway hyper-responsiveness (AHR) measurements. Allergic asthma is typically triggered by allergens in the air such as pollen, mold, dust mites, etc., and is commonly characterized by reversible […], elevated levels of IgE causing mast cell activation, chronic airway inflammation, and airway hyper-responsiveness (AHR). The immunological processes involved are characterized by proliferation and activation of Th2 lymphocytes, setting off an allergic cascade.
FIGS. 1 and 2 illustrate Compound A and Control compounds in the ovalbumin-induced lung inflammation model. For detailed procedures, see Hamelmann E, Schwarze J, Takeda K, Oshiba A, Larsen G L, Irvin C G, and Gelfand E W. Noninvasive measurement of airway responsiveness in allergic mice using barometric plethysmography. Am. J. Respir. Crit. Care Med 156: 766-775, 1997, herein incorporated by reference.

[1] = SH-EP1/human α4β2 cell membranes, [3H]-nicotine, Cheng-Prusoff, read-out: Human α4β2 Ki

Structure (SMILES) | Ki (human α7; HEK/human α7/RIC3 cell membranes, [3H]-epibatidine, Cheng-Prusoff, read-out: Human α7 Ki) [nM] | Ki (human α4β2; [1]) [nM] | Ki (human α7) [nM] | Ki (human α4β2) [nM] | methacholine (MCh)-induced bronchoconstriction (Penh, index of airway resistance) (ova-challenged mice)
O=c1cc(N2CCN3CCC2CC3)nc2cc(-c3ccccc3)on12 | 280 | 1200 | – | – | –
O=c1cc(N2CCN3CCC2CC3)nc2c3ccccc3on12 | – | – | 55 | 1200 | –
Cc1cc2nc(N3CCN4CCC3CC4)cc(=O)n2o1 [Compound A, 5-(1,4-diazabicyclo[3.2.2]nonan-4-yl)-2-methyl-7H-isoxazolo[2,3-a]pyrimidin-7-one] | – | – | – | – | statistically significant results; also recorded: reduces methacholine (MCh)-induced bronchoconstriction
Cc1cc2nc(N3CCN4CCC3CC4)cc(=O)n2o1 [drawing 5] | – | 3200 | 42 | – | –

Source: patent US20140249141A1, “1,4-DIAZABICYCLO[3.2.2]NONANES AS NEURONAL NICOTINIC ACETYLCHOLINE RECEPTOR LIGANDS” (Targacept, Inc., priority 2011, published 2014)
